Measurements: patent US12692232B2, “Indole carboxamide compound, preparation therefor and use thereof” (NANJING RUISHUNING MEDICAL TECHNOLOGY CO., LTD., priority 2021, dated 2026)

How the values were obtained:
TRPC7 protein = target: T1, TRPC7 protein (Homo sapiens, UniProt Q9HCX4); assay: MST binding to TRPC7 protein; settings: for Kd: MST; for affinity strength to TRPC6 protein higher than to TRPC7 protein: MST Kd ratio
T1 sequence (Q9HCX4 1-862): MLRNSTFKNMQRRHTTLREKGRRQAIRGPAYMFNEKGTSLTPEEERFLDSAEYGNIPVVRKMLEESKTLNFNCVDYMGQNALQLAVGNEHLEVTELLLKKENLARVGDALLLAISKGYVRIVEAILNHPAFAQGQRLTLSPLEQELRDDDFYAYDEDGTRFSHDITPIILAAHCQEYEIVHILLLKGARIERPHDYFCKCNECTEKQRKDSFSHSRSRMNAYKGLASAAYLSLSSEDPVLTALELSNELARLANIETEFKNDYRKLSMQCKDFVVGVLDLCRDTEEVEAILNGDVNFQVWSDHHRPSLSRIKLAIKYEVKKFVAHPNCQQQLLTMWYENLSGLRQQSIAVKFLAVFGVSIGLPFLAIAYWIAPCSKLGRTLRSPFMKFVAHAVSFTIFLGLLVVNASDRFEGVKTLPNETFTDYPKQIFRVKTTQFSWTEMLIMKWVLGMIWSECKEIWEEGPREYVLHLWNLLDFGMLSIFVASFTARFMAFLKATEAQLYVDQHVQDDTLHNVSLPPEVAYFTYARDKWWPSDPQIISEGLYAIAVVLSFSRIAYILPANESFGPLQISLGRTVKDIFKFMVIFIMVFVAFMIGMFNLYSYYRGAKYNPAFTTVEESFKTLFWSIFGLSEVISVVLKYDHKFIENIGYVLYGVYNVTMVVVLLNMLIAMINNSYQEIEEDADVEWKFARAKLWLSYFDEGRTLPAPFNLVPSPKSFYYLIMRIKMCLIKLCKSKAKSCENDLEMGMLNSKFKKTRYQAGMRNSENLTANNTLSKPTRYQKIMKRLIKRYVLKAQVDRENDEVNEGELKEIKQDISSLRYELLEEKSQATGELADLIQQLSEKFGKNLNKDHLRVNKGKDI
Description: (§1) Preparation and labelling of protein solution: TRPC6 protein dry powder (Alomone Labs, Israel) was prepared into a protein mother solution at a concentration of 10 μM using PBS-Buffer, and 35 μL of the protein stock solution was taken to the Buffer exchange A column, and centrifuged to obtain the Tris-removed protein. 34 μL Labelling Buffer was added to the Tris-removed protein according to the instructions of the Protein Fluorescent Labelling Kit (model L001). After mixing well, 3 μL of NT-647-NHS fluorescent dye was added and thus obtained mixture was incubated for 20 minutes. The protein-dye mixture was transferred to the purification B column, 300 μL of PBS-Buffer was added, and the target protein, i.e. fluorescent labelled protein TRPC6, was collected by centrifugation (with a final concentration of about 2 μM). 180 μL of target protein was mixed with 1620 μL of PBS-Buffer, and then 9 μl of Tween-20 were added thereto. Thus the resulting mixture was mixed and then centrifuged to obtain the target protein solution.
(§2) Preparation of compound solutions: the compounds were prepared separately with DMSO to storage solutions with a concentration of […]. 10 μL of each storage solution was placed in a […] EP tube, 90 μL of PBS was added thereto and the resulting mixture was thoroughly mixed to prepare 100 μL of working solution at a concentration of 1 μM for later use. Ligand gradient dilutions were made for a total of 16 concentrations, and 10 μL of 10% DMSO-Buffer was added to each of the 15 gradients except gradient 1, followed by the addition of 10 μL of ligand working solution to gradients 1 and 2, respectively. The liquid in tube 2 was mixed and then 10 μL therein was taken into tube 3, and dilution was carried out in this manner until tube 16. Tube 16 was mixed and 10 μL therein was taken and discarded, and the remainder was kept for later use.
(§3) Detection and analysis: 10 μL of protein solution was added to the 16 compound gradient dilutions respectively and mixed, and the resultant mixtures were transferred to capillary tubes sequentially to start detection on machine. After loading the data, the MST analysis model and Kd Model were selected to obtain the fitting curve and dissociation constant (Kd).
(§4) The binding ability of the compounds of the present invention (as exemplified by the compounds 1-1 and 2-1 obtained in Examples 1 and 3) for other TRPC proteins (e.g., TRPC1, TRPC3, TRPC4, TRPC5, and TRPC7) was determined using the microscale thermophoresis (MST) method. The method was as follows:
(§5) The affinity of the compounds of the present invention with TRPC1, TRPC3, TRPC4, TRPC5 and TRPC7 proteins, respectively, was determined by the same method as in Example 5.

TRPC6 channel = target: T2, TRPC6 channel (Homo sapiens, UniProt Q9Y210); assay: In vitro binding to TRPC6 protein by microscale thermophoresis (MST); parameters: fused on or other part: NT-647-NHS fluorescent dye label (chemical labelling for MST)
T2 sequence (Q9Y210 1-931): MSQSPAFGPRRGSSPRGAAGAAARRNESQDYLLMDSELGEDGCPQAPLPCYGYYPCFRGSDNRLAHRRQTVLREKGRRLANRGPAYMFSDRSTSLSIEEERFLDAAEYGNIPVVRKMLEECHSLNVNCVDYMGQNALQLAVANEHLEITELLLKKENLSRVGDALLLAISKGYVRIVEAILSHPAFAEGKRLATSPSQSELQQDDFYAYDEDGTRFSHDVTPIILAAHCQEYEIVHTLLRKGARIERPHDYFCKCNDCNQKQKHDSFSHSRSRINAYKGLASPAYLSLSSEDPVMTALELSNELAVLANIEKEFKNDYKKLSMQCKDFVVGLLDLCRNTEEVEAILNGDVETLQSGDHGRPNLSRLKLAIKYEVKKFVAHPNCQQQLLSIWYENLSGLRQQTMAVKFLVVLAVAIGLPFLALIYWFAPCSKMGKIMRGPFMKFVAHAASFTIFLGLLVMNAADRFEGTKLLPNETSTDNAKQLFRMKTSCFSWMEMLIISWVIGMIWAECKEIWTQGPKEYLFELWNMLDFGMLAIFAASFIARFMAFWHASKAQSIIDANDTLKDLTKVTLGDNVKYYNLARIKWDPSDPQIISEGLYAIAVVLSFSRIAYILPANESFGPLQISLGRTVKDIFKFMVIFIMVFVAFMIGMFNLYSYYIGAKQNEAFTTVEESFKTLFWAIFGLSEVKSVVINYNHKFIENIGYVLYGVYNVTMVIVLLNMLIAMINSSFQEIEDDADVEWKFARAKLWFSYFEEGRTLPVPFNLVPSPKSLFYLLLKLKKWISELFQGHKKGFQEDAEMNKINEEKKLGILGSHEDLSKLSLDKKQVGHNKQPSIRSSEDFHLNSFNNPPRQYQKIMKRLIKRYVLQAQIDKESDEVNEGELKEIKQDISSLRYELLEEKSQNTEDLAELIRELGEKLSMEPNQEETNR
Description: The binding ability of the compounds of the present invention (as exemplified by the compounds obtained in Examples 1 to 3) to the TRPC6 protein was determined using the microscale thermophoresis (MST) method. The method was as follows:
as §1
as §2, with “Tube 16 was mixed and 10 μL therein was taken and discarded, and the remainder was kept for later use.” left out

TRPC1 protein = TRPC1 protein (Homo sapiens, UniProt P48995); assay: MST binding to TRPC1 protein; settings: for Kd: MST; for affinity strength to TRPC6 protein higher than to TRPC1 protein: MST Kd ratio
TRPC1 protein, sequence (P48995 whole entry, species assumed): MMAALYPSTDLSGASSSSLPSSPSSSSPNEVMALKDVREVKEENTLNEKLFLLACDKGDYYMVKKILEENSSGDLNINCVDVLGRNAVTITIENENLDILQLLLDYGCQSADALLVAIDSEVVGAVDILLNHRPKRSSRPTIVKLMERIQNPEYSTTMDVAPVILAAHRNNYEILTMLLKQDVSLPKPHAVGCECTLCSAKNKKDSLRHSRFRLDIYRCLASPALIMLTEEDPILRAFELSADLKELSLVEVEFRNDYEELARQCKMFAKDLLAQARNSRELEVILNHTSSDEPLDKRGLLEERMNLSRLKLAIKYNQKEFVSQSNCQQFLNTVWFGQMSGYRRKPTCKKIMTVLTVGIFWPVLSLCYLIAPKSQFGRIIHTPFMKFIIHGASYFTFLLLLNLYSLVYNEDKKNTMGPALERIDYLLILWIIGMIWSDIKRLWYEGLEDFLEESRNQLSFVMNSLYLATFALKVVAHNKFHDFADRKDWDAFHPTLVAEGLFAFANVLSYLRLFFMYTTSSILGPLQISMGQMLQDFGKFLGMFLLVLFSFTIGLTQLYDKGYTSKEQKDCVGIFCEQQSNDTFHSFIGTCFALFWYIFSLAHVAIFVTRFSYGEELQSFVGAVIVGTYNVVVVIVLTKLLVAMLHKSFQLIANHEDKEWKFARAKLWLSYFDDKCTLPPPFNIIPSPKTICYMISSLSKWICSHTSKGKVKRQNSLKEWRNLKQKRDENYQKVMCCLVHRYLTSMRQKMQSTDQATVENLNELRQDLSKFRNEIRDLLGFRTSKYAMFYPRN
Description: as §1, §2, §3, §4, §5

Row | SMILES | Kd (TRPC7 protein) | affinity strength to TRPC6 protein higher than to TRPC7 protein (TRPC7 protein) | Kd (TRPC6 channel) | Kd (TRPC1 protein) | affinity strength to TRPC6 protein higher than to TRPC1 protein (TRPC1 protein)
1 | Cn1c(C(=O)NCCC(=O)O)cc2ccccc21 [3-[(1-methyl-1H-indole-2-carbonyl)amino]propionic acid, reference compound] | 1.04 µM | 35 fold | 29.78 ± 0.26 µM | 1.94 µM | 65 fold
2 | CC(=O)OCCCNC(=O)c1c(C=O)c2ccccc2n1C [compound 1-1, propyl 3-[(3-formyl-1-methyl-1H-indole-2-carbonyl)amino]acetate] | 3.04 µM | 254 fold | 12 ± 3.61 µM | 2.94 µM | 245 fold
3 | Cn1c(C(=O)NCCCOC(=O)c2ccccc2)c(C=O)c2ccccc21 [compound 2-1] | 3.21 µM | 160 fold | 19 ± 3.15 µM | 2.4 µM | 155 fold
